How the values were obtained:
cheatgrass = assay: Test B preemergence/postemergence greenhouse plant response rating 0 to 10; format: in vivo, Bromus secalinus; conditions: 0 to 10 scale
Method in brief: (§1)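 Test chemicals, dissolved in a non-phytotoxic solvent, were applied to soil at planting and, at the same time, over foliage of seedlings at the one to four leaf stage.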

corn = assay: as above; format: in vivo, Zea mays; conditions: 0 to 10 scale
Method in brief: as §1

cotton [1] = assay: as above; format: in vivo, Gossypium hirsutum; conditions: 0 to 10 scale
Method in brief: as §1

lambsquarters [2] = assay: as above; format: in vivo, Chenopodium album; conditions: 0 to 10 scale
Method in brief: as §1

rice = assay: as above; format: in vivo, Oryza sativa; conditions: 0 to 10 scale
Method in brief: as §1

wheat = assay: as above; format: in vivo, Triticum aestivum; conditions: 0 to 10 scale
Method in brief: as §1

wild oat = assay: as above; format: in vivo, Avena fatua; conditions: 0 to 10 scale
Method in brief: as §1

bedstraw = assay: Test C preemergence/postemergence greenhouse plant response rating 0 to 100; format: in vivo, Galium aparine; conditions: POSTEMERGENCE; for Plant response rating, Bedstraw: 0 to 100 scale
Method in brief: (§2)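 Compounds in non-phytotoxic solvent went onto sandy loam before emergence (seeded one day earlier) or onto plants at the one-to-four leaf stage. Duck salad was treated via flood water (~2.5 cm, maintained) over silt loam.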

cotton [3] = assay: as above; format: in vivo, Gossypium hirsutum; conditions: POSTEMERGENCE; for Plant response rating, Cotton: 0 to 100 scale
Method in brief: as §2

crabgrass = assay: as above; format: in vivo, Digitaria sanguinalis; conditions: POSTEMERGENCE; for Plant response rating, Crabgrass: 0 to 100 scale
Method in brief: as §2

downy brome = assay: as above; format: in vivo, Bromus tectorum; conditions: POSTEMERGENCE; for Plant response rating Downy Brome: 0 to 100 scale
Method in brief: as §2

giant foxtail = assay: as above; format: in vivo, Setaria faberii; conditions: POSTEMERGENCE; for Plant response rating, Giant foxtail: 0 to 100 scale
Method in brief: as §2

lambsquarters [4] = assay: as above; format: in vivo, Chenopodium album; conditions: POSTEMERGENCE; for Plant response rating Lambsquarters: 0 to 100 scale
Method in brief: as §2

sorghum = assay: as above; format: in vivo, Sorghum bicolor; conditions: POSTEMERGENCE; for Plant response rating, Sorghum: 0 to 100 scale
Method in brief: as §2

sugar beet = assay: as above; format: in vivo, Beta vulgaris; conditions: POSTEMERGENCE; for Plant response rating, Sugar beet: 0 to 100 scale
Method in brief: as §2

velvetleaf = assay: as above; format: in vivo, Abutilon theophrasti; conditions: POSTEMERGENCE; for Plant response rating, Velvetleaf: 0 to 100 scale
Method in brief: as §2

duck salad = assay: Test C flood test plant response rating 0 to 100; format: in vivo, Heteranthera limosa; conditions: for Plant response rating (0 to 100), Duck salad: under POSTEMERGENCE head (flood test species); for Plant response rating Duck salad: flood test species listed under POSTEMERGENCE, 0 to 100 scale
Method in brief: as §2

barnyardgrass = assay: Test C flood test plant response rating 0 to 100; format: in vivo, Echinochloa crus-galli; conditions: for Plant response rating (0 to 100), Barnyardgrass: under POSTEMERGENCE head (flood test species); for Plant response rating, Barnyardgrass: flood test species listed under POSTEMERGENCE, 0 to 100 scale
Method in brief: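 Compounds in non-phytotoxic solvent applied preemergence to sandy loam one day after planting, postemergence at the 1–4 leaf stage, or to ~2.5 cm floodwater over silt loam.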

Compound: CC(C)OC(=O)COc1cc(-c2nn3c(c2Cl)CCCC3)c(F)cc1Cl [Compound 39]
- Plant response rating, Cheatgrass (cheatgrass; POSTEMERGENCE, Rate 50 g/ha): 4
- Plant response rating, Cheatgrass (cheatgrass; POSTEMERGENCE, Rate 200 g/ha): 4
- Plant response rating, Cheatgrass (cheatgrass; PREEMERGENCE, Rate 50 g/ha): 0
- Plant response rating, Cheatgrass (cheatgrass; Rate 200 g/ha, PREEMERGENCE): 2
- Plant response rating, Corn (corn; POSTEMERGENCE, Rate 50 g/ha): 5
- Plant response rating, Corn (corn; POSTEMERGENCE, Rate 200 g/ha): 5
- Plant response rating, Corn (corn; PREEMERGENCE, Rate 50 g/ha): 0
- Plant response rating, Corn (corn; Rate 200 g/ha, PREEMERGENCE): 0
- Plant response rating, Cotton (cotton [1]; POSTEMERGENCE, Rate 50 g/ha): 10
- Plant response rating, Cotton (cotton [1]; POSTEMERGENCE, Rate 200 g/ha): 10
- Plant response rating, Cotton (cotton [1]; PREEMERGENCE, Rate 50 g/ha): 0
- Plant response rating, Cotton (cotton [1]; Rate 200 g/ha, PREEMERGENCE): 0
- Plant response rating, Lambsquarter (lambsquarters [2]; POSTEMERGENCE, Rate 50 g/ha): 9
- Plant response rating, Lambsquarter (lambsquarters [2]; PREEMERGENCE, Rate 50 g/ha): 10
- Plant response rating, Lambsquarter (lambsquarters [2]; Rate 200 g/ha, POSTEMERGENCE): 10
- Plant response rating, Lambsquarter (lambsquarters [2]; Rate 200 g/ha, PREEMERGENCE): 10
- Plant response rating, Rice (rice; POSTEMERGENCE, Rate 50 g/ha): 4
- Plant response rating, Rice (rice; PREEMERGENCE, Rate 50 g/ha): 0
- Plant response rating, Rice (rice; Rate 200 g/ha, POSTEMERGENCE): 6
- Plant response rating, Rice (rice; Rate 200 g/ha, PREEMERGENCE): 0
- Plant response rating, Wheat (wheat; POSTEMERGENCE, Rate 50 g/ha): 4
- Plant response rating, Wheat (wheat; PREEMERGENCE, Rate 50 g/ha): 0
- Plant response rating, Wheat (wheat; Rate 200 g/ha, POSTEMERGENCE): 5
- Plant response rating, Wheat (wheat; Rate 200 g/ha, PREEMERGENCE): 0
- Plant response rating, Wild oat (wild oat; POSTEMERGENCE, Rate 50 g/ha): 3
- Plant response rating, Wild oat (wild oat; PREEMERGENCE, Rate 50 g/ha): 0
- Plant response rating, Wild oat (wild oat; Rate 200 g/ha, POSTEMERGENCE): 3
- Plant response rating, Bedstraw (bedstraw; 62 g/ha): 70
- Plant response rating, Bedstraw (bedstraw; 125 g/ha): 100
- Plant response rating (0 to 100), Bedstraw (bedstraw; Rate 31 g/ha): 60
- Plant response rating, Cotton (cotton [3]; 62 g/ha): 100
- Plant response rating, Cotton (cotton [3]; 125 g/ha): 100
- Plant response rating (0 to 100), Cotton (cotton [3]; Rate 16 g/ha): 100
- Plant response rating (0 to 100), Cotton (cotton [3]; Rate 31 g/ha): 100
- Plant response rating, Crabgrass (crabgrass; 62 g/ha): 20
- Plant response rating, Crabgrass (crabgrass; 125 g/ha): 30
- Plant response rating (0 to 100), Crabgrass (crabgrass; Rate 16 g/ha): 10
- Plant response rating (0 to 100), Crabgrass (crabgrass; Rate 31 g/ha): 10
- Plant response rating Downy Brome (downy brome; 62 g/ha): 30
- Plant response rating Downy Brome (downy brome; 125 g/ha): 40
- Plant response rating (0 to 100), Downy Brome (downy brome; Rate 16 g/ha): 10
- Plant response rating (0 to 100), Downy Brome (downy brome; Rate 31 g/ha): 20
- Plant response rating, Giant foxtail (giant foxtail; 62 g/ha): 30
- Plant response rating, Giant foxtail (giant foxtail; 125 g/ha): 60
- Plant response rating (0 to 100), Giant foxtail (giant foxtail; Rate 16 g/ha): 10
- Plant response rating (0 to 100), Giant foxtail (giant foxtail; Rate 31 g/ha): 20
- Plant response rating Lambsquarters (lambsquarters [4]; 62 g/ha): 100
- Plant response rating Lambsquarters (lambsquarters [4]; 125 g/ha): 100
- Plant response rating (0 to 100), Lambsquarters (lambsquarters [4]; Rate 16 g/ha): 70
- Plant response rating (0 to 100), Lambsquarters (lambsquarters [4]; Rate 31 g/ha): 100
- Plant response rating, Sorghum (sorghum; 62 g/ha): 50
- Plant response rating, Sorghum (sorghum; 125 g/ha): 60
- Plant response rating (0 to 100), Sorghum (sorghum; Rate 16 g/ha): 20
- Plant response rating (0 to 100), Sorghum (sorghum; Rate 31 g/ha): 30
- Plant response rating, Sugar beet (sugar beet; 62 g/ha): 100
- Plant response rating, Sugar beet (sugar beet; 125 g/ha): 100
- Plant response rating (0 to 100), Sugar beet (sugar beet; Rate 16 g/ha): 100
- Plant response rating (0 to 100), Sugar beet (sugar beet; Rate 31 g/ha): 100
- Plant response rating, Velvetleaf (velvetleaf; 62 g/ha): 100
- Plant response rating, Velvetleaf (velvetleaf; 125 g/ha): 100
- Plant response rating (0 to 100), Velvetleaf (velvetleaf; Rate 16 g/ha): 100
- Plant response rating (0 to 100), Velvetleaf (velvetleaf; Rate 31 g/ha): 100
- Plant response rating (0 to 100), Duck salad (duck salad; Rate 16 g/ha): 0
- Plant response rating (0 to 100), Duck salad (duck salad; Rate 31 g/ha): 0
- Plant response rating Duck salad (duck salad; 62 g/ha): 0
- Plant response rating Duck salad (duck salad; 125 g/ha): 0
- Plant response rating (0 to 100), Barnyardgrass (barnyardgrass; Rate 16 g/ha): 50
- Plant response rating (0 to 100), Barnyardgrass (barnyardgrass; Rate 31 g/ha): 80
- Plant response rating, Barnyardgrass (barnyardgrass; 62 g/ha): 90
- Plant response rating, Barnyardgrass (barnyardgrass; 125 g/ha): 95
